Source: patent US10201175B2, “N-acylated 1-aminocycloalkyl carboxylic acids as food flavouring compounds” (Givaudan S.A., priority 2012, dated 2019)

Legend:
[1] = Expert taster evaluation, test on Kikkoman soy sauce low salt; conditions: 0.5 ppm in Kikkoman soy sauce low salt; salt level in application 0.3-1.0%
Experimental: (§1) Samples were prepared and evaluated by expert tasters. Tasters were asked to describe the samples focusing on authentic taste, mouthfeel, fullness, salivation, salty-ness, umami, sweetness, juiciness, richness, long lastingness and fattiness.
Test on Kikkoman soy sauce low salt
(§2) Salt level pure product between 5-40%
(§3) Salt level in application 0.3-1.0%

[2] = Expert taster evaluation, test in fish sauce; conditions: 0.5 ppm in fish sauce; salt level in application 0.3-1.0%
Experimental: as §1, §2, §3

[3] = Expert taster evaluation, test in mayonnaise; conditions: 0.5 ppm in low fat mayonnaise (27% fat)
Experimental: as §1
Fat levels between 10-80%
Low fat Mayonnaise (27% Fat)

[4] = Expert taster evaluation, test in dressings; conditions: 0.5 ppm in low fat salad dressing (13.6% fat)
Experimental: as §1
Low fat salad dressing (13.6% Fat)

[5] = Expert taster evaluation, test in soups and bouillons; conditions: 0.7% salt, 0.5% fat
Experimental: as §1
Test in Soups and Bouillons
Standard Chicken bouillon base

[6] = Expert taster evaluation, test in jus and fonds; conditions: 40 ppb in beef jus
Experimental: as §1

[7] = Expert taster evaluation, test in cheese (spreadable cheese ERU); conditions: 0.5 ppm in spreadable cheese ERU
Experimental: as §1

[8] = Expert taster evaluation, test in cheese sauce; conditions: 0.5 ppm in cheese sauce, 5% fat, 1.6% salt
Experimental: as §1
Cheese sauce: 5% fat 1.6% salt

## CCCCCCCC/C=C\CCCCCCCC(=O)NC1(C(=O)O)CC1 [C18:1-ACCA, N-oleoyl 1-amino-cyclopropyl carboxylic acid]
[1]
  taste description by expert tasters: Strong upfront saltiness lingering, very strong saltiness
[2]
  taste description by expert tasters: Strong saltiness lingering, strong body mouthfeel
[3]
  taste description by expert tasters: Nice balanced, full mouthfeel, increased eggyness
[4]
  taste description by expert tasters: Increased mouthfeel body less acidic
[5]; 0.2 ppm in standard chicken bouillon base
  taste description by expert tasters: Saltier, Stronger and more umami
[5]; 0.5 ppm in standard chicken bouillon base
  taste description by expert tasters: More body and fatty notes, salivating and good aftertaste
[6]
  taste description by expert tasters: more salty, fatty, total profile is enhanced
[7]
  taste description by expert tasters: Strong umami, lingering cheese bite
[8]
  taste description by expert tasters: Strong umami, cheese bite, expanding
